For 22 molecules, EC50 results are on record in patent US11046680B1, “Heteroaryl-substituted triazoles as APJ receptor agonists” (priority 2016, dated 2021).

In this assay the target is human APJ receptor (Homo sapiens (Human), UniProt P35414). In words: biochemical. It counts as biochemical. To be noted: [35S]GTPγS binding, CHO membranes expressing human APJ receptor; read-out: Activity hAPJ SPA EC50 IP. In outline: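 GTPγS binding on membranes from CHO cells stably expressing FLAG-tagged human APJ, with optimized GDP, MgCl2 and NaCl; incubated 90 min at RT before imaging read-out.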
Sequence of human APJ receptor (P35414 whole entry): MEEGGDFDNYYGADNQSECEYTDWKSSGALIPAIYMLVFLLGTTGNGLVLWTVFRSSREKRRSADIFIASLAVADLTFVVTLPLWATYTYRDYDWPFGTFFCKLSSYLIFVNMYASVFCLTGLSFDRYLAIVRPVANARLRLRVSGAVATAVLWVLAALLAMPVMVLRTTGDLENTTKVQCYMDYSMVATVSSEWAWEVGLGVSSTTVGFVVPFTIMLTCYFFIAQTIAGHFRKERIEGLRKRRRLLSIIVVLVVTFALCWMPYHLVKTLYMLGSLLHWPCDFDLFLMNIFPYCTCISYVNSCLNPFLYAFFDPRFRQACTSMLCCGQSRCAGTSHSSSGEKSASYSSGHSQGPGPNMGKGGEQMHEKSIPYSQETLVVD
Background: GTPγS resists hydrolysis and so accumulates on activated G proteins.

As a reminder, the EC50 is the concentration giving half of the maximal effect. Regarding `COc1cccc(OC)c1-n1c(NS(=O)(=O)C[C@H](OC)c2ccc(F)cc2S(C)(=O)=O)nnc1-c1ccn(C)n1` (single isomer, unassigned) [Example 373.0, (R)-N-(4-(2,6-Dimethoxyphenyl)-5-(1-methyl-1H-pyrazol-3-yl)-4H-1,2,4-triazol-3-yl)-2-(4-fluoro-2-(methylsulfonyl)phenyl)-2-methoxyethanesulfonamide or (S)-N-(4-(2,6-dimethoxyphenyl)-5-(1-methyl-1H-pyrazol-3-yl)-4H-1,2,4-triazol-3-yl)-2-(4-fluoro-2-(methylsulfonyl)phenyl)-2-methoxyethanesulfonamide], the EC50 turned out to be 1.3 nM. The figure for `COc1cccc(OC)c1-n1c(NS(=O)(=O)C[C@H](O)c2ccc(Cl)cc2)nnc1-c1ccn(C)n1` (single isomer, unassigned) [Example 374.0, (R)-2-(4-Chlorophenyl)-N-(4-(2,6-dimethoxyphenyl)-5-(1-methyl-1H-pyrazol-3-yl)-4H-1,2,4-triazol-3-yl)-2-hydroxyethanesulfonamide or (R)-2-(4-chlorophenyl)-N-(4-(2,6-dimethoxyphenyl)-5-(1-methyl-1H-pyrazol-3-yl)-4H-1,2,4-triazol-3-yl)-2-hydroxyethanesulfonamide] is 7 nM; for `COc1cccc(OC)c1-n1c(NS(=O)(=O)C[C@H](O)c2ccc(Cl)cc2)nnc1-c1ccn(C)n1` (single isomer, unassigned) [Example 375.0, (R)-2-(4-Chlorophenyl)-N-(4-(2,6-dimethoxyphenyl)-5-(1-methyl-1H-pyrazol-3-yl)-4H-1,2,4-triazol-3-yl)-2-hydroxyethanesulfonamide or (R)-2-(4-chlorophenyl)-N-(4-(2,6-dimethoxyphenyl)-5-(1-methyl-1H-pyrazol-3-yl)-4H-1,2,4-triazol-3-yl)-2-hydroxyethanesulfonamide] it is 5.9 nM; for `COc1cccc(OC)c1-n1c(NS(=O)(=O)C[C@H](OC)c2ccc(Cl)cn2)nnc1-c1ccn(C)n1` (single isomer, unassigned) [Example 376.0, (R)-2-(5-Chloropyridin-2-yl)-N-(4-(2,6-dimethoxyphenyl)-5-(1-methyl-1H-pyrazol-3-yl)-4H-1,2,4-triazol-3-yl)-2-methoxyethanesulfonamide or (S)-2-(5-chloropyridin-2-yl)-N-(4-(2,6-dimethoxyphenyl)-5-(1-methyl-1H-pyrazol-3-yl)-4H-1,2,4-triazol-3-yl)-2-methoxyethanesulfonamide] it is 1.7 nM. Turning to `COc1cccc(OC)c1-n1c(NS(=O)(=O)C[C@H](OC)c2ccc(Cl)cn2)nnc1-c1ccn(C)n1` (single isomer, unassigned) [Example 377.0, (R)-2-(5-Chloropyridin-2-yl)-N-(4-(2,6-dimethoxyphenyl)-5-(1-methyl-1H-pyrazol-3-yl)-4H-1,2,4-triazol-3-yl)-2-methoxyethanesulfonamide or (S)-2-(5-chloropyridin-2-yl)-N-(4-(2,6-dimethoxyphenyl)-5-(1-methyl-1H-pyrazol-3-yl)-4H-1,2,4-triazol-3-yl)-2-methoxyethanesulfonamide], the EC50 turned out to be 0.6 nM.

As for `COc1cccc(OC)c1-n1c(NS(=O)(=O)C[C@H](OC)c2ccc(Cl)cc2S(C)(=O)=O)nnc1-c1ccn(C)n1` (single isomer, unassigned) [Example 381.0, (R)-2-(4-Chloro-2-(methylsulfonyl)phenyl)-N-(4-(2,6-dimethoxyphenyl)-5-(1-methyl-1H-pyrazol-3-yl)-4H-1,2,4-triazol-3-yl)-2-methoxyethanesulfonamide or (S)-2-(4-chloro-2-(methylsulfonyl)phenyl)-N-(4-(2,6-dimethoxyphenyl)-5-(1-methyl-1H-pyrazol-3-yl)-4H-1,2,4-triazol-3-yl)-2-methoxyethanesulfonamide], the EC50 was determined as 0.29 nM. The value for `COc1cccc(OC)c1-n1c(NS(=O)(=O)[C@H](C)[C@@H](C)c2ncc(C)cn2)nnc1-c1nc(C)cs1` (stereo in doubt) [Example 1.0, (2R,3 S)-N-(4-(2,6-dimethoxyphenyl)-5-(4-methylthiazol-2-yl)-4H-1,2,4-triazol-3-yl)-3-(5-methylpyrimidin-2-yl)butane-2-sulfonamide] was 0.13 nM; that for `COc1cccc(OC)c1-n1c(NS(=O)(=O)[C@H](C)[C@@H](C)c2ncc(C)cn2)nnc1-c1csc(C)n1` (stereo in doubt) [Example 2.0, (2R,3S)-N-(4-(2,6-dimethoxyphenyl)-5-(2-methylthiazol-4-yl)-4H-1,2,4-triazol-3-yl)-3-(5-methylpyrimidin-2-yl)butane-2-sulfonamide] was 0.32 nM; that for `COc1cccc(OC)c1-n1c(NS(=O)(=O)C(C)Cc2ncc(F)cn2)nnc1-c1cc(C)no1` (stereo in doubt) [Example 57.0, (R)-N-(4-(2,6-dimethoxyphenyl)-5-(3-methylisoxazol-5-yl)-4H-1,2,4-triazol-3-yl)-1-(5-fluoropyrimidin-2-yl)propane-2-sulfonamide and (R)-N-(4-(2,6-dimethoxyphenyl)-5-(3-methylisoxazol-5-yl)-4H-1,2,4-triazol-3-yl)-1-(5-fluoropyrimidin-2-yl)propane-2-sulfonamide] was 42 nM. The value for `COc1ncnc(OC)c1-n1c(NS(=O)(=O)[C@@H](C)[C@H](C)c2ncc(C)cn2)nnc1-c1nc(C)cs1` [Example 3.0, (2S,3R)-N-(4-(4,6-dimethoxypyrimidin-5-yl)-5-(4-methylthiazol-2-yl)-4H-1,2,4-triazol-3-yl)-3-(5-methylpyrimidin-2-yl)butane-2-sulfonamide] was 2.6 nM. The value for `COc1ncnc(OC)c1-n1c(NS(=O)(=O)[C@@H](C)[C@H](OC)c2ncc(C)cn2)nnc1-c1nc(C2CC2)cs1` [Example 4.0, (1R,2S)-N-(5-(4-cyclopropylthiazol-2-yl)-4-(4,6-dimethoxypyrimidin-5-yl)-4H-1,2,4-triazol-3-yl)-1-methoxy-1-(5-methylpyrimidin-2-yl)propane-2-sulfonamide] was 0.92 nM.

Regarding `COc1ncnc(OC)c1-n1c(NS(=O)(=O)[C@@H](C)[C@H](OC)c2ncc(C)cn2)nnc1-c1csc(C)n1` [Example 5.0, (1R,2S)-N-(4-(4,6-dimethoxypyrimidin-5-yl)-5-(2-methylthiazol-4-yl)-4H-1,2,4-triazol-3-yl)-1-methoxy-1-(5-methylpyrimidin-2-yl)propane-2-sulfonamide], the 50% effective concentration (EC50) is 4.1 nM. `COc1cccc(OC)c1-n1c(NS(=O)(=O)CCc2ncc(C)cn2)nnc1-c1nc(C)cs1` [Example 10.0, N-(4-(2,6-dimethoxyphenyl)-5-(4-methyl-1,3-thiazol-2-yl)-4H-1,2,4-triazol-3-yl)-2-(5-methyl-2-pyrimidinyl)ethanesulfonamide]: the EC50 is 8.4 nM.

Regarding `COc1cccc(OC)c1-n1c(NS(=O)(=O)CCN2C(=O)N(C)CC[C@@H]2C)nnc1-c1nc(C)cs1` [Example 13.0, N-(4-(2,6-dimethoxyphenyl)-5-(4-methyl-1,3-thiazol-2-yl)-4H-1,2,4-triazol-3-yl)-2-((6S)-3,6-dimethyl-2-oxotetrahydro-1(2H)-pyrimidinyl)ethanesulfonamide], the EC50 was 2.9 nM.

With `CCOC(=O)c1ccc(OC)c(-n2c(NS(=O)(=O)CCc3ccc(Cl)cc3)nnc2-c2cccs2)c1` [Example 28.0, Ethyl 3-(3-(2-(4-chlorophenyl)ethylsulfonamido)-5-(thiophen-2-yl)-4H-1,2,4-triazol-4-yl)-4-methoxybenzoate], the EC50 stood at 6 nM. The value for `COc1cccc(OC)c1-n1c(NS(=O)(=O)[C@@H](C)[C@H](C)c2ncc(C)cn2)nnc1-c1noc2ccccc12` [Example 77.0, (2S,3R)-N-(5-(benzo[d]isoxazol-3-yl)-4-(2,6-dimethoxyphenyl)-4H-1,2,4-triazol-3-yl)-3-(5-methylpyrimidin-2-yl)butane-2-sulfonamide] was 4.1 nM. Regarding `COc1cccc(OC)c1-n1c(NS(=O)(=O)[C@@H](C)[C@H](OC)c2ncc(Cl)cn2)nnc1-c1noc2ccccc12` [Example 83.0, (1R,2S)-N-(5-(benzo[d]isoxazol-3-yl)-4-(2,6-dimethoxyphenyl)-4H-1,2,4-triazol-3-yl)-1-(5-chloropyrimidin-2-yl)-1-methoxypropane-2-sulfonamide], the EC50 is 1.9 nM.

For the molecule `Cc1cnc([C@@H](C)[C@H](C)S(=O)(=O)Nc2nnc(-c3noc4ccccc34)n2C2CCOCC2)nc1` [Example 84.0, (2S,3R)-N-(5-(benzo[d]isoxazol-3-yl)-4-(tetrahydro-2H-pyran-4-yl)-4H-1,2,4-triazol-3-yl)-3-(5-methylpyrimidin-2-yl)butane-2-sulfonamide], the EC50 was 260 nM.

For `COc1cccc(OC)c1-n1c(NS(=O)(=O)[C@@H](C)[C@H](OC)c2ncc(C)cn2)nnc1-c1noc2ccccc12` [Example 87.0, (1R,2S)-N-(5-(benzo[d]isoxazol-3-yl)-4-(2,6-dimethoxyphenyl)-4H-1,2,4-triazol-3-yl)-1-methoxy-1-(5-methylpyrimidin-2-yl)propane-2-sulfonamide], the half-maximal effective concentration (EC50) came to 82 nM. The value for `COc1ncnc(OC)c1-n1c(NS(=O)(=O)[C@@H](C)[C@H](C)c2ncc(C)cn2)nnc1-c1noc2ccccc12` [Example 88.0, (2S,3R)-N-(5-(benzo[d]isoxazol-3-yl)-4-(4,6-dimethoxypyrimidin-5-yl)-4H-1,2,4-triazol-3-yl)-3-(5-methylpyrimidin-2-yl)butane-2-sulfonamide] was 50 nM; that for `COc1cccc(OC)c1-n1c(NS(=O)(=O)[C@@H](C)[C@H](OC)c2ncc(C)cn2)nnc1-c1ccon1` [Example 90.0, (1R,2S)-N-(4-(2,6-dimethoxyphenyl)-5-(isoxazol-3-yl)-4H-1,2,4-triazol-3-yl)-1-methoxy-1-(5-methylpyrimidin-2-yl)propane-2-sulfonamide] was 33 nM. The figure for `COc1cccc(OC)c1-n1c(NS(=O)(=O)CCc2ccc(Cl)cc2)nnc1-c1cscn1` [Example 91.0, 2-(4-chlorophenyl)-N-(4-(2,6-dimethoxyphenyl)-5-(thiazol-4-yl)-4H-1,2,4-triazol-3-yl)ethanesulfonamide] is 26 nM.
